From patent US20100331315A1, “RHODANINES AND RELATED HETEROCYCLES AS KINASE INHIBITORS” (priority 2009, published 2010)
pIC50: −log10 of the molar value. Like-named read-outs stand apart in the source and are kept apart here.

Legend:
[1] = test system: leukemic cells from AML patients; settings: Fedorov et al., PNAS 104(51); cited from earlier work
[2] = test system: MV-4-11 (AML) xenograft; settings: MV-4-11 (AML) xenograft model; 2008 AACR Abstract No. 4974; cited from earlier work
[3] = test system: MOLM-13 (AML) xenograft; settings: MOLM-13 (AML) xenograft model; 2008 AACR Abstract No. 4974; cited from earlier work
[4] = test system: MV-4-11; test: Alamar Blue cell proliferation assay, MV-4-11; type: cell-based; settings: Homo sapiens
Procedure, shortened: (§1)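 Trypsinized, counted cells are plated at 4,000-5,000 per well, then test compound is added and the plates are incubated for four days at 37° C in 5% CO2. Next, Alamar Blue is added for four hours, after which dye fluorescence is recorded at 544/590 nm.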

[5] = test system: HCT-116 human colorectal carcinoma cells; test: Alamar Blue cell proliferation assay, HCT-116; type: cell-based; settings: HCT-116, Table 1, read-out: AB: HCT-116 IC50
Experimental: (§2) A representative cell-proliferation assay protocol using Alamar Blue dye (stored at 4° C., use 20 ul per well) is described hereafter.
(§3) a. Split and trypsinize cells.
(§4) b. Count cells using hemocytometer.
(§5) c. Plate 4,000-5,000 cells per well in 100 μl of medium and seed into a 96-well plate according to the following plate layout. Add cell culture medium only to wells B10 to B12. Wells B1 to B9 have cells but no compound added.
(§6) d. Add 100 μl of 2× drug dilution to each well in a concentration shown in the plate layout above. At the same time, add 100 μl of media into the control wells (wells B10 to B12). Total volume is 200 μl/well.
(§7) e. Incubate four (4) days at 37° C., 5% CO2 in a humidified incubator.
(§8) f. Add 20 μl Alamar Blue reagent to each well.
(§9) g. Incubate for four (4) hours at 37° C., 5% CO2 in a humidified incubator.
(§10) h. Record fluorescence at an excitation wavelength of 544 nm and emission wavelength of 590 nm using a microplate reader.
(§11) In the assays, cells are cultured with a test compound for approximately four days, the dye is then added to the cells and fluorescence of […] dye is detected after approximately four hours. Different types of cells can be utilized in the assays (e.g., HCT-116 human colorectal carcinoma cells, PC-3 human prostatic cancer cells and MiaPaca human pancreatic carcinoma cells).

[6] = test system: K-562; test: Alamar Blue cell proliferation assay, K-562; type: cell-based; settings: Homo sapiens
Procedure, shortened: as §1

[7] = target: T1, recombinant human CK2 (Homo sapiens, UniProt P68400); test: CK2 assay (cell-free, 33P-ATP filter plate); type: biochemical; settings: Table 5
T1 construct: purchased Upstate
Procedure, shortened: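 Recombinant human CK2 (25 ng) with RRRDDDSDDD peptide in MOPS pH 7.2 buffer; started with ATP/MgCl2 plus [γ-33P]ATP (75 micromolar ATP in stock solution) for 10 minutes at 30 degrees C. Acid-quenched, captured on phosphocellulose filters, and incorporated radioactivity counted by scintillation.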

[8] = test system: BxPC3; test: Alamar Blue cell proliferation assay, BxPC3; type: cell-based; settings: Homo sapiens, BXPC-3, BxPC3, Table 5, read-out: AB: BxPC3 IC50
Experimental: as §2, §3, §4, §5, §6, §7, §8, §9, §10, §11

[9] = target: recombinant PIM-1 (Homo sapiens, UniProt P11309); test: PIM-1 assay (33P-ATP filter plate); type: biochemical; settings: Table 5; read-out: PIM1: IC50
Procedure, shortened: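 Recombinant PIM-1 (1 ng) with 100 uM KKRNRTLTK, 15 uM ATP plus [γ-33P]ATP, 10 mM Mg acetate in MOPS pH 7.0, 4% DMSO. Reaction 40 min at 23° C, quenched with phosphoric acid; labeled peptide captured on phosphocellulose filter and counted by scintillation.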

[10] = test system: MDAMB453; test: Alamar Blue cell proliferation assay, MDAMB453; type: cell-based; settings: Homo sapiens, MDA-MB-453, MDAMB453, Table 5, read-out: AB: MDAMB453 IC50
Experimental: as §2, §3, §4, §5, §6, §7, §8, §9, §10, §11

[11] = target: recombinant human PIM2 (Homo sapiens, UniProt Q9P1W9); test: PIM-2 assay (33P-ATP filter plate); type: biochemical; settings: Table 5
Experimental: PIM-2 Assay Method: Test compounds dissolved and diluted in DMSO (2 μl) were added to a reaction mixture comprising 10 μl of 5× Reaction Buffer (40 mM MOPS pH 7.0, 5 mM EDTA), 10 μl of recombinant human PIM2 solution (4 ng PIM-2 dissolved in dilution buffer (20 mM MOPS pH 7.0; EDTA 1 mM; 5% Glycerol; 0.01% Brij 35; […]; […] 2-mercaptoethanol; 1 mg/ml BSA)) and 8 ul of water. Reactions were initiated by the addition of 10 ul of ATP Solution (49% (15 mM MgCl2; 75 uM ATP) 1% ([γ-^33P]ATP: Stock 1 mCi/1000; 3000Ci/mmol (Perkin Elmer)) and 10 ul of substrate peptide solution (RSRSSYPAGT, dissolved in water at a concentration of 1 mM), Reactions were maintained for 10 min at 30° C. The reactions were quenched with 100 ul of 0.75% Phosphoric acid, then transferred to and filtered through a Phosphocellulose filter plate (Millipore, MSPH-N6B-50). After washing each well 4 times with 0.75% Phosphoric acid, scintillation fluid (20 uL) was added to each well and the residual radioactivity was measured using a Wallac luminescence counter.

[12] = test system: SUM-149PT; test: Alamar Blue cell proliferation assay, SUM-149PT; type: cell-based; settings: Homo sapiens, SUM149PT, Table 5, read-out: AB: SUM-149PT IC50
Experimental: as §2, §3, §4, §5, §6, §7, §8, §9, §10, §11

T1 sequence (P68400 whole entry): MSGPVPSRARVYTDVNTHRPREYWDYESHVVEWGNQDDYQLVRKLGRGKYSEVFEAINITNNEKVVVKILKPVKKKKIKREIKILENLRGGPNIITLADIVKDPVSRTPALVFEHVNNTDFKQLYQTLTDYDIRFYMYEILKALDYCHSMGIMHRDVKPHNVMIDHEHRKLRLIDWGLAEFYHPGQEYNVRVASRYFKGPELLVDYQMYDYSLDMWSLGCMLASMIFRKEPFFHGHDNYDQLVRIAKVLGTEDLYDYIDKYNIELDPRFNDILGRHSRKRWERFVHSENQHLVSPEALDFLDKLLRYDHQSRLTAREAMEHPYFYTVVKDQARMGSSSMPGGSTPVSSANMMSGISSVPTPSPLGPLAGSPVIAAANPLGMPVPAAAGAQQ
T1 sequence (P67870 whole entry partner): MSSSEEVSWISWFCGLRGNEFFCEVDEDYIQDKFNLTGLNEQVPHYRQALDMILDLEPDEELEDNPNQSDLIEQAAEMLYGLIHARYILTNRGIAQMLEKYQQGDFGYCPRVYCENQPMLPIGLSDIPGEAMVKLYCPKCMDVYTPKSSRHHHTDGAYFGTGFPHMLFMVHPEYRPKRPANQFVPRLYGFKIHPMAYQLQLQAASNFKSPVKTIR
recombinant human PIM2, sequence (Q9P1W9 whole entry): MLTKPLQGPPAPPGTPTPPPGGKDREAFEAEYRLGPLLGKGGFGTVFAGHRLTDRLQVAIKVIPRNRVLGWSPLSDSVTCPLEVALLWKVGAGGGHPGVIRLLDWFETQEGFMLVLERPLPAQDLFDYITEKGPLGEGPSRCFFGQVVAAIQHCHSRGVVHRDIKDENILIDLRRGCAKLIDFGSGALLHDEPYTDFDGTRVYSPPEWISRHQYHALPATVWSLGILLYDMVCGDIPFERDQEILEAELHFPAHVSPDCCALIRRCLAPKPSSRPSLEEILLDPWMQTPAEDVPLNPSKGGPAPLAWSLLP
recombinant PIM-1, sequence (P11309 whole entry): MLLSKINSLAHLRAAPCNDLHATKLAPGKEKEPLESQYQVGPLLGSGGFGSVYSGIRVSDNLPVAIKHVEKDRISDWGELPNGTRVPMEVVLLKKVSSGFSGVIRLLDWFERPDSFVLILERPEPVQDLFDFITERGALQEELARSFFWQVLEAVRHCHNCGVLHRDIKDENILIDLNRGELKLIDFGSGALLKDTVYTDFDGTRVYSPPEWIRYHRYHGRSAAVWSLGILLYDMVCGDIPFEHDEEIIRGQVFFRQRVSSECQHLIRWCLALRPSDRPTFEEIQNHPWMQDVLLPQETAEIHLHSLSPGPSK

**Q.** Which “effect on cell growth and cell death” value [1] does the source give for `CN(C)C[C@@H]1CCn2cc(c3ccccc32)C2=C(C(=O)NC2=O)c2cn(c3ccccc23)CCO1` [Ly5333′531] here?
**A.** suppressed cell growth and induced cell death

**Q.** With `CN1CCC(CNc2ccc3ncc(-c4cccc(OC(F)(F)F)c4)n3n2)CC1` [SGI-1776] as the molecule, how does the tumor regression [2] read?
**A.** significant tumor regression

**Q.** What about the tumor regression [3] of the same molecule?
**A.** significant tumor regression

**Q.** With `O=C1NC(=S)S/C1=C\c1ccc(-c2cccc(C(=O)O)c2)o1` as the molecule, how does the pIC50 ([4]; MV4-11, MV-4-11, Table 1, read-out: AB: MV-4-11 IC50) read?
**A.** < 5.00

**Q.** And the pIC50 [5]?
**A.** < 5.00

**Q.** And the pIC50 ([6]; K562, K-562, Table 1, read-out: AB: K-562 IC50)?
**A.** < 5.00

**Q.** With `CN1C(=O)/C(=C/c2ccc(-c3cccc(C(=O)O)c3)o2)SC1=S` as the molecule, how does the pIC50 [5] read?
**A.** < 5.00

**Q.** With `O=C(O)c1cccc(-c2ccc(/C=C3\SC(=S)N(Cc4ccccc4)C3=O)o2)c1` as the molecule, how does the pIC50 [5] read?
**A.** < 5.00

**Q.** With `CN1CCCN(c2cncc(-c3cncc(/C=C4\SC(=O)NC4=O)c3)n2)CC1` as the molecule, how does the pIC50 ([4]; MV4-11, MV-4-11, Table 5, read-out: AB: MV-4-11 IC50) read?
**A.** 5.03

**Q.** And the pIC50 [7]?
**A.** 7.97

**Q.** What about the pIC50 [8] of the same molecule?
**A.** < 4.52

**Q.** And the pIC50 ([6]; K562, K-562, Table 5, read-out: AB: K-562 IC50)?
**A.** < 5.00

**Q.** And the pIC50 [9]?
**A.** > 7.30

**Q.** And the pIC50 [10]?
**A.** 4.55

**Q.** What about the pIC50 [11] of the same molecule?
**A.** > 7.30

**Q.** What about the pIC50 [12] of the same molecule?
**A.** < 4.52
